The target of this test is Human-GLP-1 receptor (Homo sapiens (Human), UniProt P43220). Nature of the test: In vitro cell activity assay (cAMP, HEK293 GLP-1 cells). The format is cell-based. The conditions noted are these: cAMP detection. How it is done:
Experimental Example 1: In Vitro Cell Activity Assay
The host cell HEK293 for GLP-1 was constructed by WuXi AppTec (Shanghai) Co., Ltd.
cAMP Detection Kit, Cisbio (Cat #62AM4PEJ); 1M HEPES, Invitrogen (Cat #15630-106); 1×HBSS, Invitrogen (Cat #14025); BSA, Sigma (Cat #B2064); IBMX, Sigma (Cat #I5879); Exenatide, Hao Yuan (HY-13443A).
The compounds were prepared into a working solution with a concentration of 30 μM using DMSO. In this assay, each sample was used in an amount of 5 μL.
• 24.5 mL of Hanks Buffer Saline Solution (HBSS), final concentration: lx; • 125 μL of HEPES 1M, final concentration: 5 mM; • 333 μL of 7.5% BSA Solution, final concentration: 0.1%; • 25 μL of IBMX 500 mmol/L, final concentration: 0.5 mmol/L.
Preparation of cAMP assay reagent: 250 μL of cAMP-D2 and 250 μL of anti-cAMP cryptate reagent were added to 4 mL of lysis buffer and mixed gently.
The compound to be tested was diluted 3-fold at 10 points with a starting concentration of 30 μM, and the dilution was completed using Bravo.
Exenatide, used as a control compound, was diluted 3-fold at 10 points with a starting concentration of 500 nM, and the dilution was completed using Bravo. […]
• 1) A GLP-1 cell cryopreservation tube was rapidly thawed in a 37° C. water bath. • 2) The cell suspension was transferred to a 15 mL Transfer centrifuge tube and gently rinsed with 10 mL of HBSS. • 3) The centrifuge tube was centrifuged at 1000 rpm for 1 minute at room temperature. • 4) The supernatant was discarded. • 5) The cells at the bottom were gently dispersed, then rinsed with 10 mL of HBSS, centrifuged to sedimentation, and finally resuspended in the experimental buffer. • 6) The cell density and activity were measured using Vi-cell. • 7) The concentration of GLP-1 cells was diluted to 2.0*105/mL with the experimental buffer. • 8) […] of the diluted cell suspension was transferred to the OptiPlate-384 plate. • 9) The plate was incubated at room temperature for 30 minutes. […]
TopSeal-A was removed and the result was read in EnVision.

Molecules are shown by their SMILES.

Human-GLP-1 receptor, sequence (P43220 24-463): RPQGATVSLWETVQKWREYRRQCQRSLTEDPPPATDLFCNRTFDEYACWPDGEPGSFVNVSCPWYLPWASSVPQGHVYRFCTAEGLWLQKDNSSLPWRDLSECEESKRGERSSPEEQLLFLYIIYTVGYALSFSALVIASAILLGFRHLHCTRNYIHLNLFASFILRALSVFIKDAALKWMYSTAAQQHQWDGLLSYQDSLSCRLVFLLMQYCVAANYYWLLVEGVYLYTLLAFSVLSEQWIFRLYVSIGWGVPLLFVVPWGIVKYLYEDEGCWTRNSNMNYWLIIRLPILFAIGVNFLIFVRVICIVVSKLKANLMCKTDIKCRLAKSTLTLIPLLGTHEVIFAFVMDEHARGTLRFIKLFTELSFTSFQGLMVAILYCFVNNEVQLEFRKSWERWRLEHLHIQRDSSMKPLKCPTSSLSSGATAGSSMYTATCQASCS

`C[C@]1(c2ccc(Cl)cn2)Oc2cccc(C3CCN(Cc4nc5sc(C(=O)O)c(F)c5n4C[C@@H]4CCO4)CC3)c2O1` (single isomer, unassigned) [Compound 001]: the EC50 was found to be 0.54 nM.

One may read the EC50 as the concentration that produces a half-maximal response. Read a high EC50 as a need for much substance.

For the origin of these results see US20240368178A1, “IMIDAZOCYCLIC COMPOUND AND APPLICATION THEREOF” (DONGBAO PURPLE STAR (HANGZHOU) BIOPHARMACEUTICAL CO., LTD., priority 2021, published 2024).
